Assay results: patent publication US20250339462A1, “CANCER TREATMENT USING ULTRA-HIGH CONCENTRATION GASEOUS NITRIC OXIDE AND A CHECKPOINT INHIBITOR” (Beyond Air, Inc., priority 2022, published 2025)

How the values were obtained:
4T1 tumor-bearing mice [1] = experiment: 4T1 breast cancer model, UNO/Anti-PD-1 Single Dose Study; type: in vivo, mouse; conditions: single-dose of UNO alone 50,000 ppm 10 min (FIG. 12A)
Protocol: Preparation of 4T1 cells: Cancer cell suspension, in Hanks' Balanced Salt Solution (HBSS) (Biological Industries, Israel), at a concentration of 5.0×10^6 cells/ml was freshly prepared on the day of the cancer model induction. Cells were grown to a 70-80% confluency and harvested using trypsin. The cells were centrifuged at 1,200 revolutions per minute (rpm)—241 G for 8 minutes, then the pellet was re-suspended in 1 ml of HBSS. The cells were counted using an automated cell counter and a suspension with a concentration of 5.0×10^6 cells/ml was prepared. Cell viability must be above 90% before cell inoculation to the mice, otherwise new cells will need to be prepared. […]
UNO and N2 treatment—On the day of treatment, mice were anesthetized by an intraperitoneal (i.p.) injection of 100 mg/kg of ketamine and 10 mg/kg of xylazine hydrochloride solution. […] After treatment, all mice were warmed and closely monitored until complete recovery was observed. […]
Anti-mPD-1 dosing started one day after UNO treatment. […] The primary tumor volume was assessed using a digital caliper using a standard formula. In addition, mice survival was evaluated. Mice were routinely weighed and monitored for health conditions using mouse distress scoring. Mice reaching a tumor volume of ≥1500 mm3 and/or a score of 12 were humanely euthanized, and the time of death was recorded.

4T1 tumor-bearing mice [2] = experiment: 4T1 breast cancer model, UNO/Anti-PD-1 Repeated Dose Study; type: in vivo, mouse
Protocol: Preparation of 4T1 cells: Cancer cell suspension, in Hanks' Balanced Salt Solution (HBSS) (Biological Industries, Israel), at a concentration of 5.0×10^6 cells/ml was freshly prepared on the day of the cancer model induction. Cells were grown to a 70-80% confluency and harvested using trypsin. The cells were centrifuged at 1,200 revolutions per minute (rpm)—241 G for 8 minutes, then the pellet was re-suspended in 1 ml of HBSS. The cells were counted using an automated cell counter and a suspension with a concentration of 5.0×10^6 cells/ml was prepared. Cell viability must be above 90% before cell inoculation to the mice, otherwise new cells will need to be prepared. At the point of inoculation, cells will be at passage 8 at most. The cell suspension was then aspirated into a 1 ml syringe with a 27 G needle, for subcutaneous (s.c.) injection. All injection volume was used and was not re-introduced into the stock solution.
Inoculation of 4T1 cancer cells to mice—Cancer cell suspension at a concentration of 5.0×10^6 cells/ml was inoculated to the right flank of animals at a volume of 100 μl per mouse. Female Balb/c mice were inoculated with 100 μl of 5.0×10^6 4T1 cells/ml. Administration was performed as soon as possible following cell preparation and after manual shaking prior to withdrawal of cell suspension. Injections were performed using a 1 ml syringe and a 27 G needle where withdrawal is done without the needle.
UNO and N2 treatment—On the day of treatment, mice were anesthetized by an intraperitoneal (i.p.) injection of 100 mg/kg of ketamine and 10 mg/kg of xylazine hydrochloride solution. Tumor-bearing mice were treated with either N2 or UNO at 50,000 ppm or 100,000 ppm. UNO at 50,000 ppm was administered intratumorally by a 23 G needle for 10 minutes, at 0.2 LPM and 2 bar exit pressure. UNO at 100,000 ppm was administered intratumorally by a 23 G needle for 2 minutes, at 0.2 LPM and 2 bar exit pressure. After treatment, all mice were warmed and closely monitored until complete recovery was observed.
Injection of anti-PD-1—Anti-PD-1 was administered 5 times intraperitoneally (i.p.) at a dose of 10 mg/kg, i.p., using a 1 ml syringe with a 27 G needle. The injection was administered to approximately the same location each time.
UNO/Anti-PD-1 Repeated Dose Study—Balb/c mice (96) were inoculated with mouse breast cancer carcinoma (4T1) cells injected subcutaneously (s.c.) to the right flank. When the average tumor volume reached 50-150 mm^3, mice assigned to gas treatment groups were treated with 5% UNO (50,000 ppm), stabilized in N2, injected intratumorally (i.t.) for 10 minutes at a flow rate of 0.2 liters per minute (LPM) or with N2 injected intratumorally (i.t.) for 10 minutes at a flow rate of 0.2 LPM as a control. The mice were administered the gas treatment, e.g., UNO or N2, twice, on day 9 post-tumor cells inoculation and, 5 days later, on day 14 post-tumor inoculation. Mice assigned to the combination treatment group (i.e., gas+anti-mPD-1) were administered anti-mPD-1 injections starting from the day of first gas treatment and administered every three days thereafter, with a final dose of anti-mPD-1 injected 12 days after the first gas treatment.
Primary tumor volume progression was monitored twice a week by measuring the tumor using a digital caliper calculated as: […]
where Diameter 1 is length, Diameter 2 is width, and Diameter 3 is height.
Mice receiving two UNO treatments were divided into two groups: in the first group, the primary tumors were surgically removed 15 days after the first UNO treatment, while, in the second group, the tumors were not resected. Mice survival was evaluated. Mice that reached a tumor volume of ≥1500 mm^3 and/or a score of 12 were humanely euthanized, and the time of death was recorded. Metastases development was evaluated postmortem.

[3] = with primary tumor resection (FIG. 13B), Cox model

Q: For `[N]=O` [UNO, nitric oxide], which “Primary tumors smaller compared to anti-mPD-1 alone” value (4T1 tumor-bearing mice [1]) is on record?
A: Its value is 13.2%.

Q: What about the “Primary tumor size vs untreated or only anti-mPD-1” value (4T1 tumor-bearing mice [2]; repeated UNO dosing 50,000 ppm 10 min twice, 14 days after first UNO treatment (FIG. 12B)) of the same compound?
A: Its value is “significantly smaller”.

Q: And the “Survival (Kaplan-Meier) vs anti-mPD-1 alone, untreated or N2 controls” value (4T1 tumor-bearing mice [2]; repeated doses of UNO)?
A: Its value is “tendency toward prolonged survival”.

Q: What about the “Tumors smaller compared to anti-mPD-1 alone group” value (4T1 tumor-bearing mice [2]; repeated doses of UNO without anti-mPD-1, 14 days after first UNO treatment) of the same compound?
A: Its value is 21.0%.

Q: What about the “Survival hazard ratio vs anti-mPD-1” value (4T1 tumor-bearing mice [2]; [3]) of the same compound?
A: Its value is 1.58.

Q: And the “Survival hazard ratio vs untreated” value (4T1 tumor-bearing mice [2]; [3])?
A: The value was 0.69.

Q: What about the “Survival hazard ratio vs untreated” value (4T1 tumor-bearing mice [2]; without resection of primary tumor (FIG. 13A), Cox model) of the same compound?
A: Its value is 0.63.
